These results are taken from ChEMBL document CHEMBL4725449, “Brain Penetrable Inhibitors of Ceramide Galactosyltransferase for the Treatment of Lysosomal Storage Disorders” (ACS Med Chem Lett, 2020).

Some results are limits rather than exact numbers.

Data set [1] concerns the target T1, UDP-glucuronosyltransferase 1A1 (Homo sapiens, UniProt P22309).
T1 sequence (P22309 whole entry): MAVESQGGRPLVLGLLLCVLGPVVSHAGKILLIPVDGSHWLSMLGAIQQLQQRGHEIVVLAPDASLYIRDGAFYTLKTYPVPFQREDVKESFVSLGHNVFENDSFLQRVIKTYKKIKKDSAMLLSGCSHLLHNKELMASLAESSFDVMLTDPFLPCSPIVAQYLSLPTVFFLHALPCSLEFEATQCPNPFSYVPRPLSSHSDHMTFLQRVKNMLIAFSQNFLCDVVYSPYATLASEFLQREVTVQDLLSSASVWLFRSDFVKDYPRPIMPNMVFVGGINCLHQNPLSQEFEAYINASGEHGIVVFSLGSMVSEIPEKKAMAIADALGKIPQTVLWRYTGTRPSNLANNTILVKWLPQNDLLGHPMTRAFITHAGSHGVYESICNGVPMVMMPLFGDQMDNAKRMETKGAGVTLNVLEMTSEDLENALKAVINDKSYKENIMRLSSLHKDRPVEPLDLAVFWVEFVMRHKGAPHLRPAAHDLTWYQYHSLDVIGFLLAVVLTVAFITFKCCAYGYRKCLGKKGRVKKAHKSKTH
The data set is described as follows: Inhibition of UGT1A1 (unknown origin). The class given is ADME.

The target of data set [2] is T2, UDP-glucuronosyltransferase 1A6 (Homo sapiens, UniProt P19224).
T2 sequence (P19224 whole entry): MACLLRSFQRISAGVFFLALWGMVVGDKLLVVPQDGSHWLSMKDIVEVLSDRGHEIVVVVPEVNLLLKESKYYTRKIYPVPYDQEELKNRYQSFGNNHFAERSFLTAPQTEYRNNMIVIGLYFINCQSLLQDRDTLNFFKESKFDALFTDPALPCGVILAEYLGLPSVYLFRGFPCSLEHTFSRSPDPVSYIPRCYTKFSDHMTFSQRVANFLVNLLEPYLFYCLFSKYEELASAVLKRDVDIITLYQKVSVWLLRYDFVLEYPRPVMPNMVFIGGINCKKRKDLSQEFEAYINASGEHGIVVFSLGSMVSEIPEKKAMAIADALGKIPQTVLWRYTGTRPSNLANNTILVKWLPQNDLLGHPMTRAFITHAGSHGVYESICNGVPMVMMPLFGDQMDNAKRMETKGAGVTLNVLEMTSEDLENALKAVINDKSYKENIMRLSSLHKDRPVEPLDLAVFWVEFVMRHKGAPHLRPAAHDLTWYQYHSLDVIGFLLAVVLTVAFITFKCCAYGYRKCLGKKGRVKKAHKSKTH
As to the kind of experiment: Inhibition of UGT1A6 (unknown origin). The data set is classed as ADME.

For data set [3], the target named is T3, UDP-glucuronosyltransferase 2B7 (Homo sapiens, UniProt P16662).
T3 sequence (P16662 whole entry): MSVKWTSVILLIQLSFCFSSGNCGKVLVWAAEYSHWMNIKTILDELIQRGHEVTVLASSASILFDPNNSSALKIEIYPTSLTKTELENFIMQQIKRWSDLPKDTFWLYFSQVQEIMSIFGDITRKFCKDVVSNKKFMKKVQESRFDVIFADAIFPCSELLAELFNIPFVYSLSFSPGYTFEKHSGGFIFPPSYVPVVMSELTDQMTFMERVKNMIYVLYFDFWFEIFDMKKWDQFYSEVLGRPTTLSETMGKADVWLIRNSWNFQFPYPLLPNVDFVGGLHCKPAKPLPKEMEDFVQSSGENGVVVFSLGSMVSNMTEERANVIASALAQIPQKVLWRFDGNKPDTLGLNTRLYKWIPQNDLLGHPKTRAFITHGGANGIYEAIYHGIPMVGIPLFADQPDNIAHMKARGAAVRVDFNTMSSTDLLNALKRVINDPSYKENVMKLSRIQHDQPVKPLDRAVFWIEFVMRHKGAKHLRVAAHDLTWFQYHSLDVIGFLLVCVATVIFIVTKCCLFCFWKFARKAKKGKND
As to the kind of experiment: Inhibition of UGT2B7 (unknown origin). The data set is classed as ADME.

Data set [4] concerns the target T4, UDP-glucuronosyltransferase 2B15 (Homo sapiens, UniProt P54855).
T4 sequence (P54855 whole entry): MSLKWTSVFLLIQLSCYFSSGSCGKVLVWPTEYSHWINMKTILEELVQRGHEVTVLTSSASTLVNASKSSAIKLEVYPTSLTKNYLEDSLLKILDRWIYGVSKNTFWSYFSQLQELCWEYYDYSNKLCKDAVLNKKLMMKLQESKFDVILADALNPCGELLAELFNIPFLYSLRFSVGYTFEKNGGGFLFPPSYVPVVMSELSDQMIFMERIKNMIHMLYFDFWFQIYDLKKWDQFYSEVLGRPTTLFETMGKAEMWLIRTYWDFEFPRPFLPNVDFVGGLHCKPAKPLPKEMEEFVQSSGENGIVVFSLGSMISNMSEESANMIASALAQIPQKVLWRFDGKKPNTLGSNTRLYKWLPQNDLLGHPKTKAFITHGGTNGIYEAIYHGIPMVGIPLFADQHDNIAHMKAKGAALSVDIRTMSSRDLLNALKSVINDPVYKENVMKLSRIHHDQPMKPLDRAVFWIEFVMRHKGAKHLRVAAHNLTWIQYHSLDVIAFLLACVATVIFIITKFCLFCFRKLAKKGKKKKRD
The data set is described as follows: Inhibition of UGT2B15 (unknown origin). The class given is ADME.

A short description of data set [5]: Drug uptake in C57BL/6 mouse brain at 3 mg/kg, iv measured at 5 mins. The class given is ADME, organism-based. Particulars: read-out: Drug uptake.
Data set [6] can be described thus: Drug uptake in C57BL/6 mouse brain at 3 mg/kg, iv measured at 1 hr. The data set is classed as ADME, organism-based. Particulars: read-out: Drug uptake.
Data set [7] in a line: Ratio of drug concentration in brain to plasma in C57BL/6 mouse measured at 1 hr. The data set is classed as ADME, organism-based. As to conditions: read-out: BPR.
Data set [8] in a line: Cmax in Sprague-Dawley rat at 3 mg/kg, po. The data set is classed as ADME, organism-based. Set-up: route oral, dose 3 mg/kg. Particulars: in vivo.
The nature of data set [9]: Tmax in Sprague-Dawley rat at 3 mg/kg, po. Particulars: in vivo. The class given is ADME, organism-based.
A short description of data set [10]: Volume of distribution at steady state in C57BL/6 mouse at 1 mg/kg, iv. Particulars: in vivo, read-out: Vdss. The data set is classed as ADME, organism-based.
A short description of data set [11]: Oral bioavailability in C57BL/6 mouse at 3 mg/kg. The class given is ADME, organism-based. As to conditions: in vivo.
Data set [12] can be described thus: Cmax in Beagle dog at 3 mg/kg, po. The data set is classed as ADME, organism-based, Canis lupus familiaris. The arrangement: route oral, dose 3 mg/kg. As to conditions: in vivo.
Data set [13] in a line: In vivo inhibition of GalCer de novo synthesis in PN14 to PN21 days C57BL/6 mouse brain assessed as reduction in [13C] galactose incorporation into GalCer at 3 mg/kg, po bid for 2 days and single dose at day 3 treated 1 hr prior to intraperitoneal injection of [13C] galactose measured after 5 hrs of last dose relative to control. The class given is functional. Particulars: C57BL/6, 72 h, time 3 day.

Data set [14] is described as follows: In vivo inhibition of SFT de novo synthesis in PN14 to PN21 days C57BL/6 mouse brain assessed as reduction in [13C] galactose incorporation into SFT at 3 mg/kg, po bid for 2 days and single dose at day 3 treated 1 hr prior to intraperitoneal injection of [13C] galactose measured after 5 hrs of last dose relative to control. The data set is classed as functional. Particulars: C57BL/6, 72 h, time 3 day.

Take `CNC(=O)c1csc2c(C(F)(F)F)cc(N3CCC(OC(=O)N[C@@H](C)COC(F)(F)F)CC3)nc12`: the IC50 in data set [1], in [2], in [3] and in data set [4] was over 10 µM in each case. For the same molecule, the concentration at 5 min in data set [5] is 2050 ng/mL. The concentration at 1 h in data set [6] was 148 ng/mL. Further, the Kp at 1 h in [7] was 0.46. In addition, the Cmax (as a rule, the peak of the concentration-time curve) was found to be 405 ng/mL in [8] and 693 ng/mL in data set [12]. The time to peak (Tmax) – broadly, the time from dosing to the highest level – in data set [9] was found to be 49.8 min. In addition, the Vd in [10] amounted to 1.64 L/kg. Further, the bioavailability (in general, dose-corrected exposure relative to a reference, in per cent) in data set [11] stood at 34%. In addition, the figures for the inhibition in vivo at 3 mg/kg in [13] and in [14] were 90% and 92%, respectively.
